From patent publication US11648254B2 (Kumquat Biosciences Inc., priority 2021, dated 2023)
Read-outs that look alike come from different tables or passages of the source.

Molecular target: SOS1 (Homo sapiens (Human), UniProt Q07889)
Test: Ras-SOS interaction assay (HTRF)
Assay type: biochemical
Source text: The ability of any compound of the present disclosure to reduce a Ras protein signaling output by, e.g., interfering or disrupting interaction (or binding) between SOS1 and a Ras protein can be assessed in vitro. For example, the equilibrium interaction of human SOS1 (hSOS1) with human wildtype Kras or K-Ras mutant (e.g., hK-Ras G12C mutant, or hK-RasG12C) can be assessed as a proxy or an indication for a subject compound's ability to inhibit SOS. Detection of such interaction is achieved by measuring homogenous time-resolved fluorescence resonance energy transfer (HTRF) from (i) a fluorescence resonance energy transfer (FRET) donor (e.g., antiGST-Europium) that is bound to GST-tagged K-RasG12C to (ii) a FRET acceptor (e.g., anti-6His-XL665) bound to a His-tagged hSOS1.
The assay buffer can contain 5 mM HEPES pH 7.4, 150 mM NaCl, 10 mM EDTA, 1 mM DTT, 0.05% BSA, 0.0025% (v/v) Igepal and 100 mM KF. A Ras working solution is prepared in assay buffer containing typically 10 nM of the protein construct (e.g., GST-tagged hK-RasG12C) and 2 nM of the FRET donor (e.g., antiGST-Eu(K) from Cisbio, France). A SOS1 working solution is prepared in assay buffer containing typically 10 nM of the protein construct (e.g., His-hSOS1) and 10 nM of the FRET acceptor (e.g., anti-6His-XL665 from Cisbio, France). An inhibitor control solution is prepared in assay buffer containing 10 nM of the FRET acceptor without the SOS1 protein.
A fixed reaction mixture with or without test compound is transferred into a 384-well plate. Ras working solution is added to all wells of the test plate. SOS1 working solution is added to all wells except for those that are subsequently filled the inhibitor control solution. After approximately 60 min incubation, the fluorescence is measured with a M1000Pro plate reader (Tecan) using HTRF detection (excitation 337 nm, emission 1: 620 nm, emission 2: 665 nm). Compounds are tested in duplicates at different concentrations (for example, 10 μM, 2.5 μM, 0.63 μM, 0.16 μM, 0.04 μM, 0.01 μM test compound). The ratiometric data (i.e., emission 2 divided by emission 1) is used to calculate IC50 values against SOS1 using GraphPad Prism (GraphPad software).

[1] = K-RasG13D utilized, read-out: IC50 inhibition of SOS
[2] = K-RasG13D, read-out: IC50 value against SOS1

Chain of SOS1 (Q07889 564-1049): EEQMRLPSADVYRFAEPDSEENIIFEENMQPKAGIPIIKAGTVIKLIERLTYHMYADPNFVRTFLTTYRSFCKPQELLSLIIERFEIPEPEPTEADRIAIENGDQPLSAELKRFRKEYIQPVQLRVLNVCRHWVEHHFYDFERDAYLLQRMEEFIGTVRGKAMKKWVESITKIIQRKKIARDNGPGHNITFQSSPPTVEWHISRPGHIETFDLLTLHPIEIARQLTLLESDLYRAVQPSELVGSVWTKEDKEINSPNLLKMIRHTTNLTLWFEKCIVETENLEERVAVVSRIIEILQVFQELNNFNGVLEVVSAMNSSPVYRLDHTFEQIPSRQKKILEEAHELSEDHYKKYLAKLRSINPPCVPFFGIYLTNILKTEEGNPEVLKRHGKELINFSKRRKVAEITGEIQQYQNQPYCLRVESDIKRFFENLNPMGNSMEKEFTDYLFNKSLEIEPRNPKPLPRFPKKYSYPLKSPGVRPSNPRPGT

## COc1nc2ncnc(N[C@H](C)c3cccc(C(F)(F)CO)c3F)c2cc1N1CCS(=O)(=O)CC1 [Compound 279, (R)-4-(4-((1-(3-(1,1-difluoro-2-hydroxyethyl)-2-fluorophenyl)ethyl)amino)-7-methoxypyrido[2,3-d]pyrimidin-6-yl)thiomorpholine 1,1-dioxide]
[1]
  IC50: 100 to 1000 nM

## COc1nc2ncnc(N[C@H](C)c3cccc(C(F)(F)F)c3F)c2cc1C1(C#N)CCN(C(C)C)CC1 [Compound 280, (R)-4-(4-((1-(2-fluoro-3-(trifluoromethyl)phenyl)ethyl)amino)-7-methoxypyrido[2,3-d]pyrimidin-6-yl)-1-isopropylpiperidine-4-carbonitrile]
[1]
  IC50: 100 to 1000 nM

## COc1nc2ncnc(N[C@H](C)c3cccc(C(F)(F)F)c3F)c2cc1C1CCN(C)CC1 [Compound 281, (R)-N-(1-(2-fluoro-3-(trifluoromethyl)phenyl)ethyl)-7-methoxy-6-(1-methylpiperidin-4-yl)pyrido[2,3-d] pyrimidin-4-amine]
[1]
  IC50: 100 to 1000 nM

## COc1nc2ncnc(N[C@H](C)c3cccc(C(F)(F)F)c3C)c2cc1C1CCN(C)CC1 [Compound 282, (R)-7-methoxy-N-(1-(2-methyl-3-(trifluoromethyl)phenyl)ethyl)-6-(1-methylpiperidin-4-yl)pyrido[2,3-d] pyrimidin-4-amine]
[1]
  IC50: 100 to 1000 nM

## COc1nc2nc(C)nc(N[C@H](C)c3cccc(C(F)(F)C4CN(C(C)C)C4)c3F)c2cc1C1(C#N)CC1 [Compound 284, (R)-1-(4-((1-(3-(difluoro(1-isopropylazetidin-3-yl)methyl)-2-fluorophenyl)ethyl)amino)-7-methoxy-2-methylpyrido[2,3-d]pyrimidin-6-yl)cyclopropane-1-carbonitrile]
[1]
  IC50: < 100 nM

## COc1nc2nc(OCC3CN(C(C)C)C3)nc(N[C@H](C)c3cccc(C(F)(F)F)c3F)c2cc1C1CCS(=O)(=O)CC1 [Compound 286, (R)-4-(4-((1-(2-fluoro-3-(trifluoromethyl)phenyl)ethyl)amino)-2-((1-isopropylazetidin-3-yl)methoxy)-7-methoxypyrido[2,3-d]pyrimidin-6-yl)tetrahydro-2H-thiopyran 1,1-dioxide]
[1]
  IC50: 100 to 1000 nM

## COc1nc2nc(C)nc(N[C@H](C)c3cccc(C(F)(F)F)c3F)c2cc1N1CCN(C2CCOCC2)CC1 [Compound 290, (R)-N-(1-(2-fluoro-3-(trifluoromethyl)phenyl)ethyl)-7-methoxy-2-methyl-6-(4-(tetrahydro-2H-pyran-4-yl)piperazin-1-yl)pyrido[2,3-d]pyrimidin-4-amine]
[1]
  IC50: < 100 nM
[2]
  IC50: < 50 nM

## COc1nc2nc(C)nc(N[C@H](C)c3cccc(C(F)(F)F)c3F)c2cc1C1(C#N)CCN(C(C)C)CC1 [Compound 306, (R)-4-(4-((1-(2-fluoro-3-(trifluoromethyl)phenyl)ethyl)amino)-7-methoxy-2-methylpyrido[2,3-d]pyrimidin-6-yl)-1-isopropylpiperidine-4-carbonitrile]
[1]
  IC50: 100 to 1000 nM

## COc1nc2nc(C)nc(N[C@H](C)c3cccc(C(F)(F)F)c3F)c2cc1N1CCN(C(=O)[C@H]2COCCO2)CC1 [Compound 310, ((R)-1,4-dioxan-2-yl)(4-(4-(((R)-1-(2-fluoro-3-(trifluoromethyl)phenyl)ethyl)amino)-7-methoxy-2-methylpyrido[2,3-d]pyrimidin-6-yl)piperazin-1-yl)methanone]
[1]
  IC50: < 100 nM

## COc1nc2nc(C)nc(N[C@H](C)c3cccc(C(F)(F)F)c3F)c2cc1N1CCN(C(=O)C2CN(C)CCO2)CC1 (stereo partly drawn) [Compound 311, (4-(4-(((R)-1-(2-fluoro-3-(trifluoromethyl)phenyl)ethyl)amino)-7-methoxy-2-methylpyrido[2,3-d]pyrimidin-6-yl)piperazin-1-yl)(4-methylmorpholin-2-yl)methanone]
[1]
  IC50: 100 to 1000 nM

## Cc1nc(N[C@H](C)c2cccc(C(F)F)c2F)c2cc(C3(C#N)CC3)c(NCC(C)(C)O)nc2n1 [Compound 319, (R)-1-(4-((1-(3-(difluoromethyl)-2-fluorophenyl)ethyl)amino)-7-((2-hydroxy-2-methylpropyl)amino)-2-methylpyrido[2,3-d]pyrimidin-6-yl) cyclopropane-1-carbonitrile]
[1]
  IC50: 100 to 1000 nM

## Cc1nc(N[C@H](C)c2cccc(C(F)F)c2F)c2cc(N3CCN(C(C)C)CC3)c(NC3CNC3)nc2n1 [Compound 357, (R)-N7-(azetidin-3-yl)-N4-(1-(3-(difluoromethyl)-2-fluorophenyl)ethyl)-6-(4-isopropylpiperazin-1-yl)-2-methylpyrido[2,3-d]pyrimidine-4,7-diamine]
[1]
  IC50: < 100 nM
[2]
  IC50: < 50 nM

## Cc1nc(N[C@H](C)c2cccc(C(F)F)c2F)c2cc(N3CCN(C)CC3)c(OCCN(C)C)nc2n1 [Compound 371, (R)-N-(1-(3-(difluoromethyl)-2-fluorophenyl)ethyl)-7-(2-(dimethylamino)ethoxy)-2-methyl-6-(4-methylpiperazin-1-yl)pyrido[2,3-d] pyrimidin-4-amine]
[1]
  IC50: < 100 nM
[2]
  IC50: < 50 nM

## COc1nc2nc(C)nc(N[C@H](C)c3cccc(C(F)(F)F)c3F)c2cc1N1CCN(C(=O)[C@@H]2COCCO2)CC1 [Compound 382, ((S)-1,4-dioxan-2-yl)(4-(4-(((R)-1-(2-fluoro-3-(trifluoromethyl)phenyl)ethyl)amino)-7-methoxy-2-methylpyrido[2,3-d]pyrimidin-6-yl)piperazin-1-yl)methanone]
[1]
  IC50: < 100 nM
[2]
  IC50: < 50 nM

## Cc1nc(N[C@H](C)c2cccc(C(F)F)c2F)c2cc(C3(C#N)CC3)c(NCC3COC3)nc2n1 [Compound 398, (R)-1-(4-((1-(3-(difluoromethyl)-2-fluorophenyl)ethyl)amino)-2-methyl-7-((oxetan-3-ylmethyl)amino)pyrido[2,3-d]pyrimidin-6-yl)cyclopropane-1-carbonitrile]
[1]
  IC50: 100 to 1000 nM

## Cc1nc(N[C@H](C)c2cccc(C(F)F)c2F)c2cc(C3(C#N)CC3)c(OC3CCOCC3)nc2n1 [Compound 403, (R)-1-(4-((1-(3-(difluoromethyl)-2-fluorophenyl)ethyl)amino)-2-methyl-7-((tetrahydro-2H-pyran-4-yl)oxy)pyrido [2,3-d]pyrimidin-6-yl)cyclopropane-1-carbonitrile]
[1]
  IC50: 100 to 1000 nM

## C[C@@H](Nc1ncnc2nc(OC3COC3)c(C3(C(F)F)CC3)cc12)c1cccc(C(F)F)c1F [Compound 408, (R)-N-(1-(3-(difluoromethyl)-2-fluorophenyl)ethyl)-6-(1-(difluoromethyl)cyclopropyl)-7-(oxetan-3-yloxy)pyrido[2,3-d]pyrimidin-4-amine]
[1]
  IC50: 100 to 1000 nM

## COc1nc2ncnc(N[C@H](C)c3cccc(C(F)F)c3F)c2cc1C1CCN(C2CCOCC2)CC1 [Compound 416, (R)-N-(1-(3-(difluoromethyl)-2-fluorophenyl)ethyl)-7-methoxy-6-(1-(tetrahydro-2H-pyran-4-yl)piperidin-4-yl)pyrido[2,3-d]pyrimidin-4-amine]
[1]
  IC50: < 100 nM
[2]
  IC50: < 50 nM

## Cc1nc(N[C@H](C)c2cccc(C(F)(F)F)c2C)c2cc(C3(C#N)CC3)c(Cl)nc2n1 [Compound 423, (R)-1-(7-chloro-2-methyl-4-((1-(2-methyl-3-(trifluoromethyl)phenyl)ethyl)amino)pyrido[2,3-d]pyrimidin-6-yl)cyclopropane-1-carbonitrile]
[1]
  IC50: 100 to 1000 nM

## COc1nc2nc(C)nc(N[C@H](C)c3cccc(C(F)(F)C4CCN(C(C)C)CC4)c3F)c2cc1C1CCN(C)CC1 [Compound 424, (R)-N-(1-(3-(difluoro(1-isopropylpiperidin-4-yl)methyl)-2-fluorophenyl)ethyl)-7-methoxy-2-methyl-6-(1-methylpiperidin-4-yl)pyrido[2,3-d]pyrimidin-4-amine]
[1]
  IC50: < 100 nM
[2]
  IC50: < 50 nM

## COc1nc2nc(CCN3CCC3)nc(N[C@H](C)c3cccc(C(C)(F)F)c3F)c2cc1C1(C#N)CC1 [Compound 425, (R)-1-(2-(2-(azetidin-1-yl)ethyl)-4-((1-(3-(1,1-difluoroethyl)-2-fluorophenyl)ethyl)amino)-7-methoxypyrido[2,3-d]pyrimidin-6-yl)cyclopropane-1-carbonitrile]
[1]
  IC50: < 100 nM
[2]
  IC50: < 50 nM

## COc1nc2nc(CCN3CCC3)nc(N[C@H](C)c3cccc(C(F)(F)F)c3F)c2cc1C1(C#N)CC1 [Compound 426, (R)-1-(2-(2-(azetidin-1-yl)ethyl)-4-((1-(2-fluoro-3-(trifluoromethyl)phenyl)ethyl)amino)-7-methoxypyrido[2,3-d]pyrimidin-6-yl)cyclopropane-1-carbonitrile]
[1]
  IC50: < 100 nM
